From patent US10611740B2, “Aryl dihydro-2H-benzo[b][1,4]oxazine sulfonamide and related compounds for use as agonists of RORγ and the treatment of disease” (Lycera Corporation, priority 2015, dated 2020)

Key:
RORγ-LBD = biological target: T1, RORγ-LBD (Homo sapiens, UniProt P51449); experiment: RORγ-Ligand Binding Domain (LBD) TR-FRET Assay; type: biochemical;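 for TR-FRET Assay Max Response: 665/615 nm ratio relative to signal without ursolic acid or compound set at 100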
T1 construct: made in house; host or cells: SF9 cells (baculovirus)
T1 sequence (P51449 269-508 limits assumed): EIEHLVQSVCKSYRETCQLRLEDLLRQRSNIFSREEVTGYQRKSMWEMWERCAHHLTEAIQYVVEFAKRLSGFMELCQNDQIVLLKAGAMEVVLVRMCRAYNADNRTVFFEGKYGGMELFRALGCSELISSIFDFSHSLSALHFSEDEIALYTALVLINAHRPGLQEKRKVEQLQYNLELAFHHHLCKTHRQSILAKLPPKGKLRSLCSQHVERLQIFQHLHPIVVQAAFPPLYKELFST
In short: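 This TR-FRET coactivator assay pairs baculovirus-expressed His-RORγ-LBD (~3 nM final) with biotin-SRC1 LXXLL peptide at 200 nM final in pH 7.0 Tris/KCl/EDTA/DTT/BSA buffer.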

Gal4-RORγ-LBD = biological target: T2, Gal4-RORγ-LBD (Homo sapiens, UniProt P51449); experiment: Gal4-RORγ Luciferase Reporter Assay in HEK-293T Cells; type: cell-based; conditions: HEK-293 cells, 2 μM ursolic acid
T2 construct: expressed in transfected cells; host or cells: HEK-293 cells (pcDNA3.1neo plasmid)
T2 sequence (P51449 269-508 limits assumed): T1 sequence (P51449 269-508 limits assumed)
In short: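 Luminescence read-out (One-Glo, 10 min RT) after overnight compound exposure at 37 °C in HEK-293 cells carrying Gal4-RORγ-LBD plus a Gal4-luciferase reporter, in the presence of 2 μM ursolic acid. Max Response is the upper plateau from a 4-parameter logistic fit, normalized to untreated signal = 100.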

Row | Compound | EC50 (RORγ-LBD) | TR-FRET Assay Max Response (RORγ-LBD) | EC50 (Gal4-RORγ-LBD) | Gal4-RORγ Assay Max Response (Gal4-RORγ-LBD)
1 | CC(=O)N[C@H]1C[C@@](C[C@H]2CN(S(=O)(=O)c3cccc(C(F)(F)F)c3)c3cc(-c4cc(F)ccc4F)ccc3O2)(C(=O)O)C1 [Compound 89A, (1s,3R)-3-acetamido-1-(((S)-6-(2,5-difluorophenyl)-4-((3-(trifluoro-methyl)phenyl)sulfonyl)-3,4-dihydro-2H-benzo[b][1,4]oxazin-2-yl)methyl)cyclobutane-1-carboxylic acid] | 500 to 5000 nM | *** (The symbol “***” indicates a value in the range of greater than 150 to 200) | 500 to 5000 nM | ** (The symbol “**” indicates a value in the range of greater than 90 to 150)
2 | CC(=O)N[C@H]1C[C@](C[C@H]2CN(S(=O)(=O)c3cccc(C(F)(F)F)c3)c3cc(-c4cc(F)ccc4F)ccc3O2)(C(=O)O)C1 [Compound 89B, (1r,3S)-3-acetamido-1-(((S)-6-(2,5-difluorophenyl)-4-((3-(trifluoro-methyl)phenyl)sulfonyl)-3,4-dihydro-2H-benzo[b][1,4]oxazin-2-yl)methyl)cyclobutane-1-carboxylic acid] | < 500 nM | ** (The symbol “**” indicates a value in the range of greater than 90 to 150) | 500 to 5000 nM | ** (The symbol “**” indicates a value in the range of greater than 90 to 150)
